Test results: patent publication US20140274688A1, “MOLECULES HAVING CERTAIN PESTICIDAL UTILITIES, AND INTERMEDIATES, COMPOSITIONS, AND PROCESSES RELATED THERETO” (DOW AGROSCIENCES LLC, priority 2013, published 2014)

Columns and labels:
[1] = system: Cabbage Looper (Trichoplusia ni) ("CL"); assay: Bioassay on Cabbage Looper (CL), 128-well diet tray assay, percent mortality; type: in vivo; conditions: Trichoplusia ni, read-out: CL
In short: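 Larvae held in covered diet trays at 25 °C, 14:10 light-dark, for five to seven days. Percent mortality scored per well and averaged over eight wells.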

[2] = system: Beet Armyworm (Spodoptera exigua) ("BAW"); assay: Bioassay on Beet Armyworm (BAW), 128-well diet tray assay, percent mortality; type: in vivo; conditions: Spodoptera exigua, read-out: BAW
In short: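 Larvae in covered diet trays held at 25 °C, 14:10 light-dark, for five to seven days. Percent mortality scored per well and averaged over eight wells per treatment.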

[3] = system: Yellow Fever Mosquito "YFM" (Aedes aegypti); conditions: Table ABC (P), rating of mortality, Yellow Fever Mosquito

Row | Compound | pest or weed control at 50 µg/cm2 [1] | pest or weed control at 50 µg/cm2 [2] | YFM [3]
1 | Cc1ccc(N2C(=O)CS/C2=N\C(=O)NCCc2ccc(-c3ncn(-c4ccc(OC(F)(F)F)cc4)n3)cc2)c(C(C)C)c1 [P26, (Z)-1-(3-(2-isopropyl-4-methylphenyl)-4-oxothiazolidin-2-ylidene)-3-(4-(1-(4-(trifluoromethoxy)phenyl)-1H-1,2,4-triazol-3-yl)phenethyl)urea] | 50 to 100% | 50 to 100% | A (80-100)
2 | Cc1cccc(N2C(=O)CS/C2=N\C(=O)NCCc2ccc(-c3ncn(-c4ccc(OC(F)(F)F)cc4)n3)cc2)c1C(C)C [P27, (Z)-1-(3-(2-isopropyl-3-methylphenyl)-4-oxothiazolidin-2-ylidene)-3-(4-(1-(4-(trifluoromethoxy)phenyl)-1H-1,2,4-triazol-3-yl)phenethyl)urea] | 50 to 100% | 50 to 100% | A (80-100)
3 | CC(C)c1cc(F)ccc1N1C(=O)CS/C1=N\C(=O)NCCc1ccc(-c2ncn(-c3ccc(OC(F)(F)F)cc3)n2)cc1 [P28, (Z)-1-(3-(4-fluoro-2-isopropylphenyl)-4-oxothiazolidin-2-ylidene)-3-(4-(1-(4-(trifluoromethoxy)phenyl)-1H-1,2,4-triazol-3-yl)phenethyl)urea] | 50 to 100% | 50 to 100% | A (80-100)
4 | CCCc1ccc(C)cc1N1C(=O)CS/C1=N\C(=O)NCCc1ccc(-c2ncn(-c3ccc(OC(F)(F)F)cc3)n2)cc1 [P29, (Z)-1-(3-(5-methyl-2-propylphenyl)-4-oxothiazolidin-2-ylidene)-3-(4-(1-(4-(trifluoromethoxy)phenyl)-1H-1,2,4-triazol-3-yl)phenethyl)urea] | 50 to 100% | 50 to 100% | A (80-100)
5 | CC(C)(C)c1ccccc1N1C(=O)CS/C1=N\C(=O)NCCc1ccc(-c2ncn(-c3ccc(OC(F)(F)F)cc3)n2)cc1 [P30, (Z)-1-(3-(2-(tert-butyl)phenyl)-4-oxothiazolidin-2-ylidene)-3-(4-(1-(4-(trifluoromethoxy)phenyl)-1H-1,2,4-triazol-3-yl)phenethyl)urea] | 50 to 100% | 50 to 100% | A (80-100)
6 | CCc1cc(C)ccc1N1C(=O)CS/C1=N\C(=O)NCCc1ccc(-c2ncn(-c3ccc(OC(F)(F)F)cc3)n2)cc1 [P31, (Z)-1-(3-(2-ethyl-4-methylphenyl)-4-oxothiazolidin-2-ylidene)-3-(4-(1-(4-(trifluoromethoxy)phenyl)-1H-1,2,4-triazol-3-yl)phenethyl)urea] | 50 to 100% | 50 to 100% | A (80-100)
7 | CC(Cc1ccc(-c2ncn(-c3ccc(OC(F)(F)F)cc3)n2)cc1)NC(=O)/N=C1\SCC(=O)N1c1ccc(F)cc1C(C)C (stereo not drawn) [P33, (Z)-1-(3-(4-fluoro-2-isopropylphenyl)-4-oxothiazolidin-2-ylidene)-3-(1-(4-(1-(4-(trifluoromethoxy)phenyl)-1H-1,2,4-triazol-3-yl)phenyl)propan-2-yl)urea] | 50 to 100% | 50 to 100% | A (80-100)
8 | CCc1cccc(C)c1N1C(=O)CS/C1=N\C(=O)NC(C)Cc1ccc(-c2ncn(-c3ccc(OC(F)(F)F)cc3)n2)cc1 (stereo not drawn) [P42, (Z)-1-(3-(2-ethyl-6-methylphenyl)-4-oxothiazolidin-2-ylidene)-3-(1-(4-(1-(4-(trifluoromethoxy)phenyl)-1H-1,2,4-triazol-3-yl)phenyl)propan-2-yl)urea] | 50 to 100% | 50 to 100% | A (80-100)
9 | COc1ccc(N2C(=O)CS/C2=N\C(=O)NCCc2ccc(-c3ncn(-c4ccc(OC(F)(F)F)cc4)n3)cc2)c(C)c1 [P44, (Z)-1-(3-(4-methoxy-2-methylphenyl)-4-oxothiazolidin-2-ylidene)-3-(4-(1-(4-(trifluoromethoxy)phenyl)-1H-1,2,4-triazol-3-yl)phenethyl)urea] | 50 to 100% | 50 to 100% | A (80-100)
10 | COc1ccc(N2C(=O)CS/C2=N\C(=O)NC(C)Cc2ccc(-c3ncn(-c4ccc(OC(F)(F)F)cc4)n3)cc2)c(C)c1 (stereo not drawn) [P45, (Z)-1-(3-(4-methoxy-2-methylphenyl)-4-oxothiazolidin-2-ylidene)-3-(1-(4-(1-(4-(trifluoromethoxy)phenyl)-1H-1,2,4-triazol-3-yl)phenyl)propan-2-yl)urea] | 50 to 100% | 50 to 100% | A (80-100)
11 | COc1cc(C)c(N2C(=O)CS/C2=N\C(=O)NCCc2ccc(-c3ncn(-c4ccc(OC(F)(F)F)cc4)n3)cc2)c(C)c1 [P47, (Z)-1-(3-(4-methoxy-2,6-dimethylphenyl)-4-oxothiazolidin-2-ylidene)-3-(4-(1-(4-(trifluoromethoxy)phenyl)-1H-1,2,4-triazol-3-yl)phenethyl)urea] | 50 to 100% | 50 to 100% | A (80-100)
12 | CCc1ccc(C)cc1N1C(=O)CS/C1=N\C(=O)NCCc1ccc(-c2ncn(-c3ccc(OC(F)(F)F)cc3)n2)cc1 [P49, (Z)-1-(3-(2-ethyl-5-methylphenyl)-4-oxothiazolidin-2-ylidene)-3-(4-(1-(4-(trifluoromethoxy)phenyl)-1H-1,2,4-triazol-3-yl)phenethyl)urea] | 50 to 100% | 50 to 100% | A (80-100)
13 | CCc1cccc(C)c1N1C(=O)CS/C1=N\C(=O)NCCc1ccc(-c2ncn(-c3ccc(OC(F)(F)F)cc3)n2)cc1 [P50, (Z)-1-(3-(2-ethyl-6-methylphenyl)-4-oxothiazolidin-2-ylidene)-3-(4-(1-(4-(trifluoromethoxy)phenyl)-1H-1,2,4-triazol-3-yl)phenethyl)urea] | 50 to 100% | 50 to 100% | A (80-100)
14 | Cc1ccc(C(C)C)c(N2C(=O)CS/C2=N\C(=O)NCCc2ccc(-c3ncn(-c4ccc(C(F)(F)F)cc4)n3)cc2)c1 [P52, (Z)-1-(3-(2-isopropyl-5-methylphenyl)-4-oxothiazolidin-2-ylidene)-3-(4-(1-(4-(trifluoromethyl)phenyl)-1H-1,2,4-triazol-3-yl)phenethyl)urea] | 50 to 100% | 50 to 100% | A (80-100)
15 | COc1ccc(C(C)C)c(N2C(=O)CS/C2=N\C(=O)NCCc2ccc(-c3ncn(-c4ccc(C(F)(F)F)cc4)n3)cc2)c1 [P53, (Z)-1-(3-(2-isopropyl-5-methoxyphenyl)-4-oxothiazolidin-2-ylidene)-3-(4-(1-(4-(trifluoromethyl)phenyl)-1H-1,2,4-triazol-3-yl)phenethyl)urea] | 50 to 100% | 50 to 100% | A (80-100)
16 | Cc1ccc(C(C)C)c(N2C(=O)C(C)S/C2=N\C(=O)NCCc2ccc(-c3ncn(-c4ccc(OC(F)(F)F)cc4)n3)cc2)c1 (stereo not drawn) [P57, (Z)-1-(3-(2-isopropyl-5-methylphenyl)-5-methyl-4-oxothiazolidin-2-ylidene)-3-(4-(1-(4-(trifluoromethoxy)phenyl)-1H-1,2,4-triazol-3-yl)phenethyl)urea] | 50 to 100% | 50 to 100% | A (80-100)
17 | Cc1ccc(C(C)C)c(-n2c(C)cs/c2=N\C(=O)NCCc2ccc(-c3ncn(-c4ccc(OC(F)(F)F)cc4)n3)cc2)c1 [P65, (Z)-1-(3-(2-isopropyl-5-methylphenyl)-4-methylthiazol-2(3H)-ylidene)-3-(4-(1-(4-(trifluoromethoxy)phenyl)-1H-1,2,4-triazol-3-yl)phenethyl)urea] | 50 to 100% | 50 to 100% | A (80-100)
18 | Cc1ccccc1N1C(=O)CS/C1=N\C(=O)NCCCCc1ccc(-c2ncn(-c3ccc(OC(F)(F)F)cc3)n2)cc1 [P144, (Z)-1-(4-oxo-3-(o-tolyl)thiazolidin-2-ylidene)-3-(4-(4-(1-(4-(trifluoromethoxy)phenyl)-1H-1,2,4-triazol-3-yl)phenyl)butyl)urea] | 50 to 100% | 50 to 100% | A (80-100)
19 | Cc1ccc(N2C(=O)CS/C2=N\C(=O)NCCCCc2ccc(-c3ncn(-c4ccc(OC(F)(F)F)cc4)n3)cc2)c(C(C)C)c1 [P154, (Z)-1-(3-(2-isopropyl-4-methylphenyl)-4-oxothiazolidin-2-ylidene)-3-(4-(4-(1-(4-(trifluoromethoxy)phenyl)-1H-1,2,4-triazol-3-yl)phenyl)butyl)urea] | 50 to 100% | 50 to 100% | B (More than 0-Less than 80)
20 | Cc1ccc(C(C)C)c(N2C(=O)CS/C2=N\C(=O)NCCC#Cc2ccc(-c3ncn(-c4ccc(OC(F)(F)F)cc4)n3)cc2)c1 [P160, (Z)-1-(3-(2-isopropyl-5-methylphenyl)-4-oxothiazolidin-2-ylidene)-3-(4-(4-(1-(4-(trifluoromethoxy)phenyl)-1H-1,2,4-triazol-3-yl)phenyl)but-3-yn-1-yl)urea] | 50 to 100% | 50 to 100% | B (More than 0-Less than 80)
21 | CC(C)c1ccccc1N1C(=O)CS/C1=N\C(=O)NCC(C)c1ccc(-c2ncn(-c3ccc(OC(F)(F)F)cc3)n2)cc1 (stereo not drawn) [P205, (Z)-1-(3-(2-isopropylphenyl)-4-oxothiazolidin-2-ylidene)-3-(2-(4-(1-(4-(trifluoromethoxy)phenyl)-1H-1,2,4-triazol-3-yl)phenyl)propyl)urea] | 50 to 100% | 50 to 100% | A (80-100)
